Molecular target: T1, Osh4-Δ1-40 (template of Osh4-Δ1-40(K109A) and eOsh4) (Saccharomyces cerevisiae, UniProt P35844, K109A)
T1 construct: gene KES1; N-terminal lid (aa 1-40) removed; pET-30a, N- and C-terminal His6 tags (printed for eOsh4), E. coli BL21 RIL codon plus
Test: SPR (BIACORE X-100, L1 chip, immobilised LUVs, equilibrium Req)
Format: binding
Settings: apparent, 20 mM Tris pH 7.4, 0.16 M NaCl, 23 °C

Structure (SMILES) | Kd (protein concentration at half-maximal binding to POPC/POPS/25HC 75:20:5 LUVs (Fig. 3D legend 77:20:5)) [µM] | Kd (protein concentration at half-maximal binding to POPC/POPS/cholesterol 75:20:5 LUVs (Fig. 3D legend 77:20:5)) [µM]
C[C@H](CCCC(C)(C)O)[C@H]1CC[C@H]2[C@@H]3CC=C4C[C@@H](O)CC[C@]4(C)[C@H]3CC[C@]12C [25-hydroxycholesterol] | 0.8 ± 0.13 | 
CC(C)CCC[C@@H](C)[C@H]1CC[C@H]2[C@@H]3CC=C4C[C@@H](O)CC[C@]4(C)[C@H]3CC[C@]12C [cholesterol] |  | 0.1 ± 0.016
